{"source": "patent US20180368427A1", "about": "“Method of Reducing Spoilage in Harvested Produce During Storage and Shipping” (Apeel Technology, Inc., priority 2016, published 2018)", "system": "strawberries", "experiment": "Average daily mass loss rate of coated strawberries stored at low relative humidity", "details": "over 4 days, 10 mg/mL in ethanol, spray coated, 23-27° C., 40-55% humidity (FIG. 7A), listed as pure PA-2G formulation (712)", "method": "FIG. 7A is a graph showing average daily mass loss rates for coated and uncoated harvested strawberries stored at low relative humidity levels for 4 days. The coating agents included various mixtures of PA-1G and PA-2G, as detailed below. Each bar in the graph represents average daily mass loss rates for a group of 15 strawberries. The strawberries corresponding to bar 702 were untreated (control group). The strawberries corresponding to bar 704 were treated with a solution for which the coating agent was substantially pure PA-1G. The strawberries corresponding to bar 706 were treated with a solution for which the coating agent was 75% PA-1G and 25% PA-2G by mass. The strawberries corresponding to bar 708 were treated with a solution for which the coating agent was 50% PA-1G and 50% PA-2G by mass. The strawberries corresponding to bar 710 were treated with a solution for which the coating agent was 25% PA-1G and 75% PA-2G by mass. The strawberries corresponding to bar 712 were treated with a solution for which the coating agent was substantially pure PA-2G. […] FIG. 7A is a graph showing average daily mass loss rates, measured over the course of 4 days, of the untreated strawberries and of the strawberries coated with one of the five solutions described above. […]", "data": [{"compound": "CCCCCCCCCCCCCCCC(=O)OC(CO)CO", "note": "[PA-2G, 1,3-dihydroxypropan-2-yl palmitate]", "values": [{"measurement": "average daily mass loss rate", "value": 6.1, "unit": "%"}]}]}
